Source: patent US5618685A, “Activation of herpes simplex virus protease by kosmotropes” (priority 1995, dated 1997)
Structures can show the parent of a compound that is named as a salt. Where two headings read alike, the source gives them in different places.

Legend:
HSV-1 protease [1] = molecular target: T1, HSV-1 protease (Human herpesvirus 1, UniProt P10210); assay: biochemical
Description: For experiments examining anion effects, buffer solutions were prepared with the sodium salt of the anion and the pH was adjusted to 7.5 with concentrated HCl where necessary (i.e., citrate, glutamate, malate). An exception was phosphate, where NaH2 PO4 was prepared in the buffer and the pH adjusted upward with NaOH.
Enzyme activity was measured with the peptide substrates […]-amide (SEQ.ID.NO.:2) and […]-amide (SEQ.ID.NO.:1), using HPLC for the separation of products from substrates as described in Darke et al., 1994, supra. The C-terminal cleavage products of enzymatic hydrolysis are SEKFKMW-amide (SEQ.ID.NO.:3) and […]-amide (SEQ.ID.NO.:4) respectively. Quantitation of the C-terminal cleavage product, containing tryptophan, in the HPLC effluent was with a Hewlett-Packard model 1046A fluorescence detector (excitation at 280 nm, emission at 350 nm). […] Reactions were performed at 37° C. in a pH 7.5 buffer containing 52 mM 4-morpholinoethanesulfonic acid (MES), 52 mM 3-(N-tris(hydroxymethyl)methylamino)-2-hyroxy-propanesulfonic acid (TAPSO) and 100 mM diethanolamine, 1 mM EDTA, 1 mM dithiothreitol, 0.1% bovine serum albumin, and the various additives listed in the Tables. Reactions were initiated by the addition of a stock HSV-1 protease solution (0.625 mg/ml) in the above buffer with no additives to a final concentration of 0.025 mg/ml (0.94 μM) and quenched with the addition of 5% H3 PO4. Activity assays comparing various anion and cosolvents effects were conducted with a substrate concentration of 53 μM. Activity in Tables 1 and 2 is expressed as relative to the case where no additive was present in the reaction mixture.

HSV-1 protease [2] = molecular target: T1, HSV-1 protease; assay: Susceptibility of HSV-1 protease to trypsin proteolysis (SDS-PAGE); format: biochemical, Herpes Simplex Virus type 1; set-up: Autoprocessing of the precursor to the mature 246 amino acid form of the enzyme; made in house; host or cells: E. coli; settings: trypsin 0.1 mg/ml, 37° C., 60 min; 0.8M citrate
Description: HSV-1 protease was incubated for 60 minutes at 37° C. with or without trypsin, either with or without 0.8M sodium citrate present, as described in Example 3. Samples were analyzed with SDS-PAGE (16% gels) and stained with Coomassie brilliant blue. Lanes 1 and 2, no trypsin added; lanes 3 and 4, trypsin added at 0.1 mg/ml. Lanes 1 and 3, no citrate added; lanes 2 and 4, sodium citrate present at 0.8M during incubation. The arrow on the right indicates the position of 27 kDa, undigested HSV-1 protease. Molecular weight markers are in the leftmost lane, with the corresponding molecular weights marked in kDa.
In accordance with this invention, the sensitivity of native HSV-1 protease to trypsin was examined as a function of kosmotrope concentration. Following treatment of the enzyme with trypsin for 60 minutes, SDS-PAGE was performed to qualitatively examine the extent of trypsin digestion of the HSV-1 protease.
Trypsin treatment of the HSV-1 protease (0.15 mg/ml) was performed with 0.1 mg/ml trypsin at 37° C. for 60 min. Trypsin activity s measurements with the fluorogenic substrate BOC-Val-Pro-Arg-7-amino-4-methylcoumarin were performed at 37° C. After trypsin treatment, samples were boiled with SDS gel sample buffer and small volumes of sodium citrate were added to some samples to equalize the extent of band spreading on the gel. […]

[3] = anion (Na+ salt) 0.2M, 37° C., pH 7.5, substrate 53 μM, relative to no additive, 200000 µM
[4] = anion (Na+ salt) 0.8M, 37° C., pH 7.5, substrate 53 μM, relative to no additive, 800000 µM
[5] = pH 7.5, read-out: Relative activity of HSV-1 protease
[6] = anion (Na+ salt) at ionic strength = 0.8, 37° C., pH 7.5, substrate 53 μM, relative to no additive

T1 sequence (P10210 1-247): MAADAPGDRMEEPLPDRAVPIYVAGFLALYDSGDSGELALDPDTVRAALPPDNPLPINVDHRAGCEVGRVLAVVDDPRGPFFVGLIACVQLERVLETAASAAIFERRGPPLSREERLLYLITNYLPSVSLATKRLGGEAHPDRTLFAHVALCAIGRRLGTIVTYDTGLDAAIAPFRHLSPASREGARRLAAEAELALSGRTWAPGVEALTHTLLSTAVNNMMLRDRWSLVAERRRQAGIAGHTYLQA

`O=S(=O)(O)O` [SO4^2-, sulfate] was tested, and the “effect of anion/salt on HSV-1 protease activity (in words)” value (“effect of anion/salt” below) (HSV-1 protease [1]) was “strong activation” and the “Relative activity of HSV-1 protease” value (HSV-1 protease [1]; [3]) was 4.70.

In the case of `[O-][Cl+3]([O-])([O-])O` [ClO4^-, perchlorate], the “effect of anion/salt” value (HSV-1 protease [1]) was “inhibitory”, the “Relative activity of HSV-1 protease” value (HSV-1 protease [1]; [3]) was 0.06 and the “Relative activity of HSV-1 protease” value (HSV-1 protease [1]; [4]) was 0.00.

`CC(=O)O` [CH3 COO^-] gave an activity at 200000 µM (HSV-1 protease [1]; [5]) of 171% and an activity at 800000 µM (HSV-1 protease [1]; [5]) of 703%.

With `O=C(O)C[C@@H](O)C(=O)O` [D-malate] the activity at 200000 µM (HSV-1 protease [1]; [5]) was 409%.

In the case of `F` [F^-], the “effect of anion/salt” value (HSV-1 protease [1]) was “some activation” and the “Relative activity of HSV-1 protease” value (HSV-1 protease [1]; [3]) was 6.15.

In the case of `Cl` [Cl^-, Chloride], the “effect of anion/salt” value (HSV-1 protease [1]) was “little effect”, the “Relative activity of HSV-1 protease” value (HSV-1 protease [1]; [3]) was 0.96 and the “Relative activity of HSV-1 protease” value (HSV-1 protease [1]; [4]) was 1.08.

With `O=P(O)(O)O` [HPO4^2- /PO4^3-, sodium phosphate] the “effect of anion/salt” value (HSV-1 protease [1]) was “strong activation”, the “kcat /KM” value (HSV-1 protease [1]; 0.8M salt present) was 2200 M⁻¹ s⁻¹ and the “Relative activity of HSV-1 protease” value (HSV-1 protease [1]; [3]) was 5.68.

With `O=C(O)CC(C(=O)O)C(O)C(=O)O` (centres unmarked) [Isocitrate] the “Relative activity of HSV-1 protease” value (HSV-1 protease [1]; [6]) was 3.53 and the activity at 200000 µM (HSV-1 protease [1]; [5]) was 772%.

`OCCO` [Ethylene glycol] was tested, and the activity at 2 % (HSV-1 protease [1]; [5]) was 63%, the activity at 5 % (HSV-1 protease [1]; [5]) was 67% and the activity at 10 % (HSV-1 protease [1]; [5]) was 45%.

Work on `N[C@@H](CCC(=O)O)C(=O)O` [L-glutamate] yielded an activity at 200000 µM (HSV-1 protease [1]; [5]) of 245%.

In the case of `OCC(O)CO` [Glycerol], the “effect of co-solvent on HSV-1 protease activity (in words)” value (from here on “effect of co-solvent”) (HSV-1 protease [1]) was “Activation was observed, albeit to a lesser extent”.

`N[C@H](CCC(=O)O)C(=O)O` [D-glutamate] showed an activity at 200000 µM (HSV-1 protease [1]; [5]) of 290%.

For `CCO` [Ethanol], the “effect of co-solvent” value (HSV-1 protease [1]) was “strongly inactivating”, the activity at 2 % (HSV-1 protease [1]; [5]) was 27% and the activity at 5 % (HSV-1 protease [1]; [5]) was 10%. The activity at 10 % (HSV-1 protease [1]; [5]) was 0%.

`O=C(O)CC(O)(CC(=O)O)C(=O)O` [Citrate, sodium citrate] was tested, and the “susceptibility of HSV-1 protease to trypsin digestion (in words)” value (HSV-1 protease [2]) was “loss in susceptibility of HSV-1 protease to trypsin digestion”, the “effect of anion/salt” value (HSV-1 protease [1]) was “strong activation” and the “kcat /KM” value (HSV-1 protease [1]) was 4500 M⁻¹ s⁻¹. The “amount of peptide cleavage product (SEKFKMW-amide) that accumulated in 60 minutes” value (HSV-1 protease [1]; 0.8M sodium citrate in reaction mixture, HSV-1 protease 40 nM) was 100 pmol, the “amount of peptide cleavage product that accumulated in 1 minute” value (HSV-1 protease [1]; 0.8M sodium citrate in reaction mixture, enzyme 0.93 μM) was 100 pmol and the “Relative activity of HSV-1 protease” value (HSV-1 protease [1]; [6]) was 4.16. For the same compound, the fold induction at 800000 µM (HSV-1 protease [1]; pH 7.5, read-out: enhancement of the observed hydrolytic rate (increase of activity)) was 202 and the fold induction at 800000 µM (HSV-1 protease [1]; pH 7.5, read-out: increase of the protease activity (catalytic efficiency)) was 860.

For `O=C(O)CCC(=O)O` [Succinate], the “Relative activity of HSV-1 protease” value (HSV-1 protease [1]; pH 7.5) was 6.03 and the activity at 200000 µM (HSV-1 protease [1]; [5]) was 397%.

For `[Br-].[K+]` [Br^-, bromide], the “Relative activity of HSV-1 protease” value (HSV-1 protease [1]; pH 7.5, 200000 µM) was 0.23 and the “Relative activity of HSV-1 protease” value (HSV-1 protease [1]; pH 7.5, 800000 µM) was 0.07.

In the case of `CN(C)C=O` [Dimethyl formamide], the “effect of co-solvent” value (HSV-1 protease [1]) was “strongly inactivating”.

In the case of `C[S+](C)[O-]` [Dimethyl sulfoxide], the inhibition at 2 % (HSV-1 protease [1]; read-out: reduction of HSV protease activity, 2% DMSO with 0.8M sodium citrate present) was 8% and the inhibition at 2 % (HSV-1 protease [1]; read-out: reduction of HSV protease activity, 2% DMSO, no kosmotropic anion) was 37%.

With `O=C(O)/C=C(/CC(=O)O)C(=O)O` [cis-Aconitrate] the “Relative activity of HSV-1 protease” value (HSV-1 protease [1]; [6]) was 2.40 and the activity at 200000 µM (HSV-1 protease [1]; [5]) was 506%.

With `N.N.O=S(=O)(O)O` [(NH4)2 SO4] the “effect of anion/salt” value (HSV-1 protease [1]) was “slightly less activating”.

With `I` [I^-, iodide] the “effect of anion/salt” value (HSV-1 protease [1]) was “inhibition”, the “Relative activity of HSV-1 protease” value (HSV-1 protease [1]; [3]) was 0.07 and the “Relative activity of HSV-1 protease” value (HSV-1 protease [1]; [4]) was 0.00. For the same compound, the “effect of anion/salt” value (HSV-1 protease [1]; listed as iodide) was “inhibitory”.

With `O=P(O)(O)OP(=O)(O)O` [HP2 O7^3-] the “Relative activity of HSV-1 protease” value (HSV-1 protease [1]; [3]) was 7.32.

`O=C(O)C[C@H](O)C(=O)O` [L-malate] gave an activity at 200000 µM (HSV-1 protease [1]; [5]) of 404%.

`OC[C@@H](O)[C@@H](O)[C@H](O)[C@@H](O)CO` [Sorbitol] was tested, and the “effect of co-solvent” value (HSV-1 protease [1]) was “Activation was observed, albeit to a lesser extent”.
